Reference: patent US9399649B2, “Compounds for treating spinal muscular atrophy” (PTC Therapeutics Inc., priority 2012, dated 2016)

Experiments:
Smn protein = Smn protein assay in cultured cells (SMN HTRF); type: cell-based, human; details: SMA patient fibroblast cells (GM03813), 48 hours; for maximum fold (Fold) increase of Smn protein: 7-point concentration data, relative to vehicle control; for EC1.5x for Smn protein expression: 7-point concentration curve, concentration producing 1.5 times Smn protein vs DMSO vehicle
In short: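 SMA patient fibroblasts, 5,000 per well in DMEM-10% FBS, exposed 48 h at 37° C. to a 7-point, 3.16-fold compound series in triplicate. RIPA lysates read by SMN HTRF (665/620 nm, overnight at room temperature); ΔF over blank expressed as fold of vehicle.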

[1] = test system: full length SMN2 minigene mRNA containing SMN2 exon 7; experiment: SMN2 minigene mRNA splicing RT-qPCR assay in cultured cells; type: cell-based, human; details: Homo sapiens, HEK293-H; HEK293H cells stably transfected with SMN2-A minigene, 24 hours, 7-point concentration curve; concentration giving 1.5-fold full length SMN2 mRNA vs vehicle; read-out: EC1.5x for production of full length SMN2 mRNA
In short: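 HEK293H cells stably carrying SMN2-A minigene treated 24 h (37 °C) with compound, 7-point 3.16-fold dilution, duplicates. Multiplex RT-qPCR on lysate with exon 7/luciferase primers and exon 7–8 junction probe (minigene-specific). Full-length transcript normalised to GAPDH by modified ΔΔCt, expressed relative to vehicle-treated cells.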

| melting point | Compound | maximum fold (Fold) increase of Smn protein (Smn protein) | EC (1.5-fold) [1] | EC1.5x for Smn protein expression (Smn protein) |
| --- | --- | --- | --- | --- |
| 175 to 177 °C | C[C@@H]1CN(c2ccc3cc(-c4ccc5c(c4)OCCO5)oc(=O)c3c2)CCN1 [Cpd 37, 3-(2,3-dihydro-1,4-benzodioxin-6-yl)-7-[(3R)-3-methylpiperazin-1-yl]-1H-isochromen-1-one] | * (A maximum fold increase of ≦1.2 is indicated by one star (*)) | 1 to 3 µM | – |
| 163 to 165 °C | CN1CCN(c2ccc3cc(-c4ccc5c(c4)OCCO5)oc(=O)c3c2)CC1 [Cpd 38, 3-(2,3-dihydro-1,4-benzodioxin-6-yl)-7-(4-methylpiperazin-1-yl)-1H-isochromen-1-one] | * (A maximum fold increase of ≦1.2 is indicated by one star (*)) | 3 to 30 µM | – |
| 218 to 220 °C | C[C@@H]1CN(c2ccc3cc(-c4ccc5c(c4)OCCO5)oc(=O)c3c2)C[C@H](C)N1 [Cpd 39, 3-(2,3-dihydro-1,4-benzodioxin-6-yl)-7-[(3R,5S)-3,5-dimethylpiperazin-1-yl]-1H-isochromen-1-one] | * (A maximum fold increase of ≦1.2 is indicated by one star (*)) | 1 to 3 µM | – |
| 248 to 250 °C | C[C@H]1CN(c2ccc3cc(-c4ccc5c(c4)OCO5)oc(=O)c3c2)CCN1 [Cpd 40, 3-(1,3-benzodioxol-5-yl)-7-[(3S)-3-methylpiperazin-1-yl]-1H-isochromen-1-one] | * (A maximum fold increase of ≦1.2 is indicated by one star (*)) | 0.3 to 1 µM | – |
| 220 to 222 °C | C[C@H]1CN(c2ccc3cc(-c4ccc(O)c(O)c4)oc(=O)c3c2)CCN1 [Cpd 41, 3-(3,4-dihydroxyphenyl)-7-[(3S)-3-methylpiperazin-1-yl]-1H-isochromen-1-one] | *** (a fold increase between >1.35 and ≦1.5 is indicated by three stars (***)) | 0.3 to 1 µM | – |
| 239 to 240 °C | CCOc1ccc(-c2cc3ccc(N4CCN[C@@H](C)C4)cc3c(=O)o2)cc1 [Cpd 42, 3-(4-ethoxyphenyl)-7-[(3S)-3-methylpiperazin-1-yl]-1H-isochromen-1-one] | ** (a fold increase between >1.2 and ≦1.35 is indicated by two stars (**)) | 0.1 to 0.3 µM | – |
| 209 to 211 °C | COc1ccc(-c2cc3ccc(N4CCN[C@@H](C)C4)cc3c(=O)o2)cc1F [Cpd 43, 3-(3-fluoro-4-methoxyphenyl)-7-[(3S)-3-methylpiperazin-1-yl]-1H-isochromen-1-one] | *** (a fold increase between >1.35 and ≦1.5 is indicated by three stars (***)) | ≤ 0.1 µM | **** (an EC1.5×≦0.3 nM is indicated by four stars (****)) |
| 256 to 258 °C | C[C@H]1CN(c2ccc3cc(-c4cccc(O)c4)oc(=O)c3c2)CCN1 [Cpd 44, 3-(3-hydroxyphenyl)-7-[(3S)-3-methylpiperazin-1-yl]-1H-isochromen-1-one] | ** (a fold increase between >1.2 and ≦1.35 is indicated by two stars (**)) | 3 to 30 µM | – |
| 167 to 168 °C | COc1ccc(-c2cc3ccc(N4CCN[C@@H](C)C4)cc3c(=O)o2)c(F)c1 [Cpd 45, 3-(2-fluoro-4-methoxyphenyl)-7-[(3S)-3-methylpiperazin-1-yl]-1H-isochromen-1-one] | *** (a fold increase between >1.35 and ≦1.5 is indicated by three stars (***)) | 0.1 to 0.3 µM | – |
| 187 to 189 °C | COc1ccc(-c2cc3ccc(N4CCN[C@@H](C)C4)cc3c(=O)o2)cc1Cl [Cpd 46, 3-(3-chloro-4-methoxyphenyl)-7-[(3S)-3-methylpiperazin-1-yl]-1H-isochromen-1-one] | **** (a fold increase between >1.5 and ≦1.65 is indicated by four stars (****)) | 0.1 to 0.3 µM | *** (an EC1.5× between >0.3 nM and ≦1 nM is indicated by three stars (***)) |
| 118 to 120 °C | COc1cc(-c2cc3ccc(N4CCN[C@@H](C)C4)cc3c(=O)o2)ccc1F [Cpd 47, 3-(4-fluoro-3-methoxyphenyl)-7-[(3S)-3-methylpiperazin-1-yl]-1H-isochromen-1-one] | * (A maximum fold increase of ≦1.2 is indicated by one star (*)) | 3 to 30 µM | – |
| 115 to 117 °C | COc1ccc(F)cc1-c1cc2ccc(N3CCN[C@@H](C)C3)cc2c(=O)o1 [Cpd 48, 3-(5-fluoro-2-methoxyphenyl)-7-[(3S)-3-methylpiperazin-1-yl]-1H-isochromen-1-one] | * (A maximum fold increase of ≦1.2 is indicated by one star (*)) | 0.3 to 1 µM | – |
| 170 to 173 °C | COc1c(F)cc(-c2cc3ccc(N4CCN[C@@H](C)C4)cc3c(=O)o2)cc1F [Cpd 49, 3-(3,5-difluoro-4-methoxyphenyl)-7-[(3S)-3-methylpiperazin-1-yl]-1H-isochromen-1-one] | * (A maximum fold increase of ≦1.2 is indicated by one star (*)) | 3 to 30 µM | – |
| 231 °C (dec.) | COc1ccc(-c2cc3ccc(N4CCN[C@@H](C)C4)cc3c(=O)o2)c(OC)c1 [Cpd 50, 3-(2,4-dimethoxyphenyl)-7-[(3S)-3-methylpiperazin-1-yl]-1H-isochromen-1-one] | *** (a fold increase between >1.35 and ≦1.5 is indicated by three stars (***)) | ≤ 0.1 µM | ** (an EC1.5× between >1 μM, and ≦3 nM is indicated by two stars (**)) |
| 245 °C (dec.) | CCOc1ccc(-c2cc3ccc(N4CCNCC4)cc3c(=O)o2)cc1 [Cpd 51, 3-(4-ethoxyphenyl)-7-(piperazin-1-yl)-1H-isochromen-1-one] | * (A maximum fold increase of ≦1.2 is indicated by one star (*)) | 1 to 3 µM | – |
| 206 to 208 °C | Cc1cc2cc(-c3cc4ccc(N5CCNCC5)cc4c(=O)o3)ccc2o1 [Cpd 52, 3-(2-methyl-1-benzofuran-5-yl)-7-(piperazin-1-yl)-1H-isochromen-1-one] | *** (a fold increase between >1.35 and ≦1.5 is indicated by three stars (***)) | 0.1 to 0.3 µM | * (An EC1.5× for Smn protein expression between >3 μM and <10 μM is indicated by one star (*)) |
| 132 to 134 °C | C[C@H]1CN(c2ccc3cc(-c4cccc(OC(F)F)c4)oc(=O)c3c2)CCN1 [Cpd 53, 3-[3-(difluoromethoxy)phenyl]-7-[(3S)-3-methylpiperazin-1-yl]-1H-isochromen-1-one] | ** (a fold increase between >1.2 and ≦1.35 is indicated by two stars (**)) | 0.3 to 1 µM | – |
| 121 to 123 °C | C[C@H]1CN(c2ccc3cc(-c4ccc(OC(F)F)cc4)oc(=O)c3c2)CCN1 [Cpd 54, 3-[4-(difluoromethoxy)phenyl]-7-[(3S)-3-methylpiperazin-1-yl]-1H-isochromen-1-one] | * (A maximum fold increase of ≦1.2 is indicated by one star (*)) | 0.3 to 1 µM | – |
| 340 to 342 °C | C[C@H]1CN(c2ccc3cc(-c4cn5ccsc5n4)oc(=O)c3c2)CCN1 [Cpd 55, 3-(imidazo[2,1-b][1,3]thiazol-6-yl)-7-[(3S)-3-methylpiperazin-1-yl]-1H-isochromen-1-one] | ** (a fold increase between >1.2 and ≦1.35 is indicated by two stars (**)) | 0.1 to 0.3 µM | – |
| 225 to 227 °C | Cc1cn2cc(-c3cc4ccc(N5CCNCC5)cc4c(=O)o3)nc2cn1 [Cpd 56, 3-(6-methylimidazo[1,2-a]pyrazin-2-yl)-7-(piperazin-1-yl)-1H-isochromen-1-one] | ***** (a fold increase >1.65 is indicated by five stars (*****)) | ≤ 0.1 µM | **** (an EC1.5×≦0.3 nM is indicated by four stars (****)) |
| 242 to 244 °C | Cc1cn2cc(-c3cc4ccc(N5CCN[C@@H](C)C5)cc4c(=O)o3)nc2cn1 [Cpd 57, 3-(6-methylimidazo[1,2-a]pyrazin-2-yl)-7-[(3S)-3-methylpiperazin-1-yl]-1H-isochromen-1-one] | ***** (a fold increase >1.65 is indicated by five stars (*****)) | ≤ 0.1 µM | **** (an EC1.5×≦0.3 nM is indicated by four stars (****)) |
| 279 to 281 °C | Cc1cn2cc(-c3cc4ccc(N5C[C@@H](C)N[C@@H](C)C5)cc4c(=O)o3)nc2cn1 [Cpd 58, 7-[(3R,5S)-3,5-dimethylpiperazin-1-yl]-3-(6-methylimidazo[1,2-a]pyrazin-2-yl)-1H-isochromen-1-one] | ***** (a fold increase >1.65 is indicated by five stars (*****)) | ≤ 0.1 µM | **** (an EC1.5×≦0.3 nM is indicated by four stars (****)) |
| 343 to 345 °C | O=c1oc(-c2cn3cccc(Cl)c3n2)cc2ccc(N3CCNCC3)cc12 [Cpd 59, 3-(8-chloroimidazo[1,2-a]pyridin-2-yl)-7-(piperazin-1-yl)-1H-isochromen-1-one] | ** (a fold increase between >1.2 and ≦1.35 is indicated by two stars (**)) | 1 to 3 µM | – |
